Results reported in patent US8747809B2, “Single diastereomers of 4-fluoroglutamine and methods of their preparation and use” (The Trustees Of The University Of Pennsylvania, priority 2009, dated 2014).
“Also recorded” adds a separate entry of the source. Values belong to the compound of their own block, whether it stands above or below them.

Key:
9 L tumor cell line = assay: In vitro cell uptake studies of the four 4-[18F]F-glutamine isomers; format: cell-based, rat; details: 18F-labeled isomer, 37° C., 5-120 min, compared to [3H]glutamine
Experimental: Cell uptake of four possible isomers was evaluated using 9 L tumor cell line. The cell uptake results (% dose/100 μg protein) were compared to that of [^3H] glutamine.
(§1) Because of this observation, we decided only to further investigate the (2S,4R) isomer of [^18F]4-FGln, 1. In vitro cell uptake inhibition studies were conducted in 9 L cells in order to test the specificity of [^18F]4-FGln (2S,4R), 1. Cold L-glutamine and L-serine served as the positive control inhibitors for the glutamine transporters. L-glutamine inhibits system N transporter and L-serine inhibits the ASC transporter. Three different concentrations were tested for each inhibitor ranging from 0.5 mM to 5 mM. After 30 minutes of co-incubation of L-glutamine and [^18F] […] Cold MeAIB served as the negative control, which inhibits system A transporter.
(§2) The cellular uptake of each of the four 4-[^18F]F-glutamine isomers (2S,4R), (2S,4S), (2R,4S) and (2R,4R) were studied in (9 L) rat brain gliosarcoma cells. L-[3,4-^3H(N)]-glutamine, >97%, 250 μCi (9.25 MBq), was purchased from Perkin Elmer and was used as a control for all of the cellular uptake experiments conducted. […] All four of the 4-[^18F]F-glutamine isomers and the L-[3,4-^3H(N)]-glutamine was dissolved in PBS solution and was added to each well (500,000 cpm/mL/well) and incubated at 37° C. for 5, 30, 60, 120 min. At the end of the incubation period, the wells were aspirated and then the residual cells were washed 3 times with 1 mL ice cold PBS without Ca^2+ and Mg^2+. After washing with cold PBS, 350 μL 1M NaOH was used to lyse the cells. The lysed cells were collected onto filter paper. The filter papers were placed in scintillation vials and counting fluid was added (7 mL ecolite+) and the vials were then counted with a beta counter 18-24 h later. For dual-isotope studies using 4-[^18F]F-glutamine isomers and L-[3,4-^3H(N)]-glutamine, the vials were counted first using a gamma counter to obtain ^18F counts. The beta counts were then obtained one day later after the ^18F was fully decayed. 100 μL of the cell lysate was used for the determination of the protein concentration by Lowry method.

9 L cells = assay: In vitro inhibition studies of 4-[18F]F-glutamine (2S,4R) uptake; format: cell-based, rat; details: for effect of inhibitor on tracer uptake / transporter (in words): 0.5 mM to 5 mM; for uptake of [18F]4-FGln (2S,4R) in presence of inhibitor: 30 minutes co-incubation, 5 mM stated for MeAIB, control 3.56
Experimental: as §1, §2
To test the specificity of the 4-[^18F]F-glutamine (2S,4R) isomer, inhibition studies were conducted using 9 L cells. The tracer was incubated at 37° C. for 30 min. The cells were processed as previously described as above. Cold L-glutamine and L-Serine served as the positive control inhibitors for the glutamine transporters. L-glutamine inhibits system N transporter and L-Serine inhibits the ASC transporter. Cold MeAIB served as the negative control, which inhibits system A transporter. Three different concentrations were tested for each inhibitor ranging from 0.5 mM to 5 mM.

[1] = test system: M/tomND spontaneous human mammary tumors; assay: Dynamic small animal PET (A-PET) imaging; format: in vivo, mice; details: ~300 μCi via lateral tail vein, 120 minutes imaging, myc gene up-regulated
Experimental: Dynamic small animal PET (A-PET) imaging studies were conducted with 4-[^18F]F-glutamine (2S,4R) isomer. All scans were performed on a dedicated animal PET scanner (Mosaic by Phillips) (Surti, 2005). Transgenic mice bearing M/tomND spontaneous human mammary tumors were used in this study. There are many advantages to using this transgenic mouse model. A doxycycline sensitive promoter genetically engineers these mice to express the myc gene. These tumors spontaneously arise vs. traditional xenograph tumors. […] When doxycycline is removed, the myc gene is down regulated. This model was chosen because these compounds will allow a direct correlation between true glutamine uptake and the level of myc gene expression.
Glutamine uptake within the M/tomND tumor was examined by injecting ˜300 μCi of the [^18F]-4F-glutamine (2S,4R) isomer via the lateral tail vein. Imaging commenced immediately after the injection of the tracer and continued for a time period of 120 minutes.

[2] = In vivo biodistribution study in normal mice; details: for % Dose/Gram, Blood / % Dose/Gram, Bone / % Dose/Gram, Brain / % Dose/Gram, Heart / % Dose/Gram, Kidney / % Dose/Gram, Liver / % Dose/Gram, Lung / % Dose/Gram, Muscle / % Dose/Gram, Pancreas / % Dose/Gram, Skin / % Dose/Gram, Spleen: normal ICR mice, n = 5
Experimental: To test the [^18F]-4F-glutamine isomers as a novel tumor PET imaging agents, we tested the [^18F]-4F-glutamine (2S,4R) (1) in normal ICR mice weighing 20-25 grams. 5 mice per group were used for the biodistrubution study. The mice were put under anesthesia with the use of isoflurane and 0.15 mL saline solution containing 25 μCi of each isomer was injected via the lateral tail vein. The mice were sacrificed at 2, 30, 60, 120 and 240 minutes post-injection by cardiac excision while under isoflurane anesthesia. The organs of interest were removed, weighed and the radioactivity was counted with a gamma counter (Packard Cobra). The percent dose per gram was calculated by a comparison of the tissue activity counts to counts of 1.0% of the initial dose. The initial dose consists of 100 times diluted aliquots of the injected material measured at the same rate.

SMILES: NC(=O)[C@H](F)C[C@@H](N)C(=O)O [Compound 4, (2R,4R)-4-FGln]
cell uptake in 9 L cells (in words) (9 L tumor cell line): lower cell uptake

SMILES: NC(=O)CC[C@H](N)C(=O)O [L-glutamine]
effect of inhibitor on tracer uptake / transporter (in words) (9 L cells; 30 min): clearly inhibited
uptake of [18F]4-FGln (2S,4R) in presence of inhibitor (9 L cells): 0.49 % dose/100 ug protein
inhibition at 5000 µM (9 L cells; Rattus norvegicus, 0.5 h, 30 min, [5 mM], read-out: inhibition of [18F]4-FGln (2S,4R) uptake): ~90%

SMILES: N[C@@H](CO)C(=O)O [L-serine]
effect of inhibitor on tracer uptake / transporter (in words) (9 L cells; 30 min): considerable inhibition
uptake of [18F]4-FGln (2S,4R) in presence of inhibitor (9 L cells): 1.41 % dose/100 ug protein

SMILES: NC(=O)[C@@H](F)C[C@@H](N)C(=O)O [Compound 3, (2R,4S)-4-FGln]
cell uptake in 9 L cells (in words) (9 L tumor cell line): lower cell uptake

SMILES: NC(=O)[C@H](F)C[C@H](N)C(=O)O [Compound 1, (2S,4R)-2,5-Diamino-4-fluoro-5-oxopentanoic acid]
cell uptake in 9 L cells (in words) (9 L tumor cell line; listed as 4-FGln (2S,4R)): high uptake; also recorded: excellent uptake

tumor uptake in PET images (in words) [1]: taken up in the tumor sites
% Dose/Gram, Blood ([2]; 2 min post-injection, iv): 6.19 ± 0.83 % Dose/Gram
% Dose/Gram, Blood ([2]; 30 min post-injection, iv): 2.72 ± 0.17 % Dose/Gram
% Dose/Gram, Blood ([2]; 60 min post-injection, iv): 2.05 ± 0.16 % Dose/Gram
% Dose/Gram, Blood ([2]; 120 min post-injection, iv): 0.83 ± 0.12 % Dose/Gram
% Dose/Gram, Blood ([2]; 240 min post-injection, iv): 0.48 ± 0.06 % Dose/Gram
% Dose/Gram, Bone ([2]; 2 min post-injection, iv): 3.93 ± 0.37 % Dose/Gram
% Dose/Gram, Bone ([2]; 30 min post-injection, iv): 5.64 ± 0.69 % Dose/Gram
% Dose/Gram, Bone ([2]; 60 min post-injection, iv): 7.93 ± 1.02 % Dose/Gram
% Dose/Gram, Bone ([2]; 120 min post-injection, iv): 14.4 ± 1.31 % Dose/Gram
% Dose/Gram, Bone ([2]; 240 min post-injection, iv): 19.4 ± 0.50 % Dose/Gram
% Dose/Gram, Brain ([2]; 2 min post-injection, iv): 0.54 ± 0.05 % Dose/Gram
% Dose/Gram, Brain ([2]; 30 min post-injection, iv): 0.51 ± 0.05 % Dose/Gram
% Dose/Gram, Brain ([2]; 60 min post-injection, iv): 0.53 ± 0.07 % Dose/Gram
% Dose/Gram, Brain ([2]; 120 min post-injection, iv): 0.57 ± 0.05 % Dose/Gram
% Dose/Gram, Brain ([2]; 240 min post-injection, iv): 0.45 ± 0.06 % Dose/Gram
% Dose/Gram, Heart ([2]; 2 min post-injection, iv): 4.31 ± 0.32 % Dose/Gram
% Dose/Gram, Heart ([2]; 30 min post-injection, iv): 3.16 ± 0.25 % Dose/Gram
% Dose/Gram, Heart ([2]; 60 min post-injection, iv): 2.86 ± 0.47 % Dose/Gram
% Dose/Gram, Heart ([2]; 120 min post-injection, iv): 1.86 ± 0.24 % Dose/Gram
% Dose/Gram, Heart ([2]; 240 min post-injection, iv): 1.24 ± 0.19 % Dose/Gram
% Dose/Gram, Kidney ([2]; 2 min post-injection, iv): 16.1 ± 1.03 % Dose/Gram
% Dose/Gram, Kidney ([2]; 30 min post-injection, iv): 9.93 ± 0.52 % Dose/Gram
% Dose/Gram, Kidney ([2]; 60 min post-injection, iv): 7.60 ± 0.84 % Dose/Gram
% Dose/Gram, Kidney ([2]; 120 min post-injection, iv): 2.15 ± 0.34 % Dose/Gram
% Dose/Gram, Kidney ([2]; 240 min post-injection, iv): 1.25 ± 0.21 % Dose/Gram
% Dose/Gram, Liver ([2]; 2 min post-injection, iv): 6.92 ± 0.92 % Dose/Gram
% Dose/Gram, Liver ([2]; 30 min post-injection, iv): 6.23 ± 0.50 % Dose/Gram
% Dose/Gram, Liver ([2]; 60 min post-injection, iv): 5.70 ± 0.62 % Dose/Gram
% Dose/Gram, Liver ([2]; 120 min post-injection, iv): 2.46 ± 0.26 % Dose/Gram
% Dose/Gram, Liver ([2]; 240 min post-injection, iv): 1.30 ± 0.18 % Dose/Gram
% Dose/Gram, Lung ([2]; 2 min post-injection, iv): 7.15 ± 0.76 % Dose/Gram
% Dose/Gram, Lung ([2]; 30 min post-injection, iv): 5.36 ± 0.49 % Dose/Gram
% Dose/Gram, Lung ([2]; 60 min post-injection, iv): 4.37 ± 0.28 % Dose/Gram
% Dose/Gram, Lung ([2]; 120 min post-injection, iv): 1.69 ± 0.10 % Dose/Gram
% Dose/Gram, Lung ([2]; 240 min post-injection, iv): 1.03 ± 0.15 % Dose/Gram
% Dose/Gram, Muscle ([2]; 2 min post-injection, iv): 1.62 ± 0.10 % Dose/Gram
% Dose/Gram, Muscle ([2]; 30 min post-injection, iv): 2.48 ± 0.16 % Dose/Gram
% Dose/Gram, Muscle ([2]; 60 min post-injection, iv): 2.86 ± 0.34 % Dose/Gram
% Dose/Gram, Muscle ([2]; 120 min post-injection, iv): 1.81 ± 0.26 % Dose/Gram
% Dose/Gram, Muscle ([2]; 240 min post-injection, iv): 0.94 ± 0.15 % Dose/Gram
% Dose/Gram, Pancreas ([2]; 2 min post-injection, iv): 17.2 ± 1.00 % Dose/Gram
% Dose/Gram, Pancreas ([2]; 30 min post-injection, iv): 19.7 ± 2.16 % Dose/Gram
% Dose/Gram, Pancreas ([2]; 60 min post-injection, iv): 17.5 ± 2.28 % Dose/Gram
% Dose/Gram, Pancreas ([2]; 120 min post-injection, iv): 9.57 ± 1.22 % Dose/Gram
% Dose/Gram, Pancreas ([2]; 240 min post-injection, iv): 5.92 ± 0.87 % Dose/Gram
% Dose/Gram, Skin ([2]; 2 min post-injection, iv): 2.72 ± 0.05 % Dose/Gram
% Dose/Gram, Skin ([2]; 30 min post-injection, iv): 4.01 ± 0.24 % Dose/Gram
% Dose/Gram, Skin ([2]; 60 min post-injection, iv): 2.94 ± 0.68 % Dose/Gram
% Dose/Gram, Skin ([2]; 120 min post-injection, iv): 2.17 ± 0.16 % Dose/Gram
% Dose/Gram, Skin ([2]; 240 min post-injection, iv): 1.25 ± 0.13 % Dose/Gram
% Dose/Gram, Spleen ([2]; 2 min post-injection, iv): 7.51 ± 0.44 % Dose/Gram
% Dose/Gram, Spleen ([2]; 30 min post-injection, iv): 5.39 ± 0.72 % Dose/Gram
% Dose/Gram, Spleen ([2]; 60 min post-injection, iv): 4.22 ± 0.38 % Dose/Gram
% Dose/Gram, Spleen ([2]; 120 min post-injection, iv): 2.02 ± 0.16 % Dose/Gram
% Dose/Gram, Spleen ([2]; 240 min post-injection, iv): 1.15 ± 0.14 % Dose/Gram
pancreas to liver ratio ([2]; after 30 min, normal mice, iv): 4 to 1
SMILES: NC(=O)[C@H]([18F])C[C@H](N)C(=O)O [Compound 1, (2S,4R)-2,5-Diamino-4-fluoro-5-oxopentanoic acid]
cell uptake in 9 L cells (in words) (9 L tumor cell line): highest uptake
uptake of [18F]4-FGln (2S,4R) without inhibitor (control) (9 L cells; 30 min, 37° C.): 3.56 % dose/100 ug protein
in vivo de-fluorination (in words) ([2]; inferred from increasing bone uptake at later time points): likely that there was in vivo de-fluorination

SMILES: CNC(C)(C)C(=O)O [MeAIB]
effect of inhibitor on tracer uptake / transporter (in words) (9 L cells; 30 min): little to no effect
uptake of [18F]4-FGln (2S,4R) in presence of inhibitor (9 L cells): 3.69 % dose/100 ug protein
